Broadly, the melting point is the temperature, or range, at which the solid turns liquid.

In one data set the test system is LDL. Briefly: LDL oxidation by copper, conjugated diene formation (OD 234 nm). The data set is classed as biochemical. The conditions noted are these: 10^−4 M; for LDL oxidation rate (rate of conjugated diene formation): copper alone 3 nmol/min/mg of LDL; for increase in the lag phase: relative to copper alone; for decrease in the maximum amount of conjugated dienes formed: copper alone 496 nmol per mg of LDL. The method, then:
Oxidation of LDL is an important modification which plays a major role in the onset and development of atherosclerosis (Jurgens, Hoff et al. 1987). […] Unless otherwise indicated, all reagents were from Sigma (St Quentin, France).
LDL were prepared as described by Lebeau et al. (Lebeau, Furman et al. 2000). The solutions of the test compounds were prepared at 10^−2 M in ethanol and diluted in PBS so that the final concentration ranged from 0.1 to 100 μM with a total ethanol concentration of 1% (VN).
Before oxidation, EDTA was removed from the LDL preparation by dialysis. The oxidation reaction was then carried out at 30° C. by adding 100 μl of 16.6 μM CuSO4 to 800 μl of LDL (125 μg protein/ml) and 100 μl of a test compound solution. The formation of dienes, the species to be followed, was measured by the optical density at 234 nm in the samples treated with the compounds in the presence or absence of copper. Optical density at 234 nm was measured every 10 minutes for 8 hours on a thermostated spectrophotometer (Kontron Uvikon 930). The analyses were carried out in triplicate. A compound was considered to have antioxidant activity when it shifted the lag phase latency relative to the control sample. […] FIG. 4 presents an example of the results obtained with the inventive compounds.

Another data set has as its target T1, PPARα (Homo sapiens, UniProt Q07869).
T1 construct: expressed in transfected cells; host or cells: HepG2
T1 sequence (Q07869 239-466 limits assumed): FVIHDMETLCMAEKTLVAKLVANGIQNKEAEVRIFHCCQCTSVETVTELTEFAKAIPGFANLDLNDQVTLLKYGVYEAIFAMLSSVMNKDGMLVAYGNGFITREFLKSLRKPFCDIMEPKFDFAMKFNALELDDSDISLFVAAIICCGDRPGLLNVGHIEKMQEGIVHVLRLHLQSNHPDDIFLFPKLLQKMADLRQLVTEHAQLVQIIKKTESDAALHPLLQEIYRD
Briefly: Gal4/PPARα transactivation system in HepG2 cells (luciferase reporter). The data set is classed as cell-based. The conditions noted are these: HepG2 cells transfected with Gal4/PPARα plasmids, 24 h. Here is the method:
PPAR activation was tested in vitro in RK13 fibroblast cell lines or in a hepatocyte line HepG2 by measuring the transcriptional activity of chimeras composed of the DNA binding domain of the yeast gal4 transcription factor and the ligand binding domain of the different PPARs. The example below is given for HepG2 cells.
HepG2 cells were from ECACC (Porton Down, UK) and were grown in DMEM medium supplemented with 10% (VN) fetal calf serum, 100 U/ml penicillin (Gibco, Paisley, UK) and 2 mM L-glutamine (Gibco, Paisley, UK). The culture medium was changed every two days. Cells were kept at 37° C. in a humidified 95% air/5% CO2 atmosphere.
The plasmids pG5TkpGL3, PRL-CMV, pGal4-hPPARα, pGal4-hPPARγ and pGal4-f have been described by Raspe et al. (Raspe, Madsen et al. 1999). The pGal4-mPPARα and pGal4-hPPARβ constructs were obtained by cloning PCR-amplified DNA fragments corresponding to the DEF domains of the mouse PPARα and […] nuclear receptors, respectively, into the pGal4-f vector.
HepG2 cells were seeded in 24-well culture dishes at 5×10^4 cells/well and transfected for 2 hours with the reporter plasmid pG5TkpGL3 (50 ng/well), the expression vectors pGal4-f, pGal4-mPPARα, pGal4-hPPARα, pGal4-hPPARγ, or pGal4-hPPARβ (100 ng/well) and the transfection efficiency control vector pRL-CMV (1 ng/well) according to the previously described protocol (Raspe, Madsen et al. 1999), then incubated for 36 hours with the test compounds. At the end of the experiment, the cells were lysed (Gibco, Paisley, UK) and luciferase activity was determined with a Dual-Luciferase™ Reporter Assay System kit (Promega, Madison, Wis., USA) according to the supplier's instructions. The protein content of the cell extracts was then measured with the Bio-Rad Protein Assay kit (Bio-Rad, Munich, Germany) as directed by the supplier. […] FIG. 3 gives an example of the results obtained with the inventive compounds.
FIG. 3: HepG2 cells transfected with Gal4/PPARα plasmids were incubated with different concentrations (5, 15, 50 and 100 μM) of the inventive comopunds (Ex 2a, Ex 4a, Ex 4p, Ex 5a, Ex 7 and Ex 11) for 24 h and with different concentrations of the vehicle (PC) noted 1, 2, 3, 4 as controls for the 5, 15, 50 and 100 μM concentrations of the inventive compounds (according to the 4:1 (m/m) ratio described in example 2 (Method of preparation of the inventive compounds for in vitro studies)). The results are expressed as the induction factor (luminescent signal of treated cells divided by luminescent signal of untreated cells) after the different treatments. […] The induction factors for inventive compound Ex 4p were 35 at 100 μM, 44 at 50 μM, 36 at 15 μM and 24 at 5 μM. The induction factors for compound Ex 5a were 32 at 100 μM, 34 at 50 μM, 15 at 15 μM and 4 at 5 μM. Finally, inventive compound Ex 7 induced a 19-fold induction at 100 μM, 19 at 50 μM, 7 at 15 μM and 1.5 at 5 μM. In contrast, when the cells were incubated with the vehicle (PC liposome), no significant induction was observed.
(Reporter assays use an easily measured gene product as a stand-in for the process of interest.)

In the case of `CCCCCCCCCCCCCCCC(=S)OC(CN)CN.Cl.Cl`, the melting point is 224 °C (dec.).
As to “1,2-(dipalmitoyloxy)-3-tetradecylthioacetylaminopropane [Ex 9]”, in the data set with LDL, the “LDL oxidation rate (rate of conjugated diene formation)” value (shortened to “LDL oxidation rate”) was “did not significantly alter” and the “increase in the lag phase” value stood at 33%.
Turning to `CCCCCCCCCCCCCCSCC(=O)OCC(O)CO` (stereo not drawn) [Ex 2a, 1-tetradecylthioacetylglycerol], the “LDL oxidation rate” value in the data set on LDL was “did not significantly alter”. For the same compound, the “increase in the lag phase” value with LDL was determined as 67%. Also, the “induction factor (luminescent signal of treated cells divided by luminescent signal of untreated cells)” value turned out to be 17 fold at PPARα (5 μM), 31 fold at PPARα (15 μM), 41 fold on PPARα (50 μM) and 62 fold at PPARα (100 μM).
On to `CCCCCCCCCCCCCCCC(=O)OCC(COC(=O)CCCCCCCCCCCCCCC)OC(=O)CSCCCCCCCCCCCCCC` [Ex 4g, 1,3-dipalmitoyl-2-tetradecylthioacetylglycerol], for which, in the data set on LDL, the “LDL oxidation rate” value is listed as 1.8 nmol/min/mg of LDL, the “decrease in the maximum amount of conjugated dienes formed” value came to 31% and the “increase in the lag phase” value came out at 170%. The “lag phase for conjugated diene formation” value in the data set on LDL (copper alone 104 minutes) is 282 min.
`CCCCC/C=C\C/C=C\CCCCCCCC(=O)OCC(COC(=O)CCCCCCC/C=C\C/C=C\CCCCC)OC(=O)CSCCCCCCCCCCCCCC` [Ex 4h, 1,3-dilinoleoyl-2-tetradecylthioacetylglycerol]: in the data set with LDL, the “LDL oxidation rate” value is 2.5 nmol/min/mg of LDL, the “decrease in the maximum amount of conjugated dienes formed” value was found to be 24% and the “increase in the lag phase” value is reported as 43%.
As to `CCCCCCCCCCCCCCCC(=O)OC(COC(=O)CSCCCCCCCCCCCCCC)COC(=O)CSCCCCCCCCCCCCCC` [Ex 4o, 1.3-ditetradecylthioacetyl-2-palmitoyl-glycerol], in the data set on LDL, the “LDL oxidation rate” value is “did not significantly alter” and the “increase in the lag phase” value came to 37%.
For the compound `CCCCCCCCCCCCCCSCC(=O)OC(COC(C)=O)COC(C)=O` [Ex 4p, 1,3-diacetyl-2-tetradecylthioacetylglycerol], the “induction factor (luminescent signal of treated cells divided by luminescent signal of untreated cells)” value at PPARα (5 μM) is on record as 24 fold; on PPARα (15 μM) it was 36 fold; on PPARα (50 μM) it was 44 fold; on PPARα (100 μM), 35 fold.
The corresponding values for `CCCCCCCCCCCCCCSCC(=O)NC(CO)CO` [Ex 5a, 2-tetradecylthioacetamidopropane-1.3-diol] are 4 fold, 15 fold, 34 fold and 32 fold.
For `CCCCCCCCCCCCCCSCC(=O)NCC(O)CO` (stereo not drawn) [Ex 7, 3-(tetradecylthioacetylamino)propane-1,2-diol], the “induction factor (luminescent signal of treated cells divided by luminescent signal of untreated cells)” value worked out at 1.5 fold at PPARα (5 μM), 7 fold at PPARα (15 μM), 19 fold on PPARα (50 μM) and 19 fold on PPARα (100 μM).
